# Results as given in patent publication US6407094B1, “Glutamate receptor antagonists” (Hoffmann-la Roche Inc., priority 1999, dated 2002).
# Assays:
# rat mGlu2 receptor = biological target: T1, rat mGlu2 receptor (Rattus norvegicus, UniProt P31421); experiment: [3H]-LY354740 binding on mGlu2 transfected CHO cell membranes
# T1 construct: expressed in transfected cells; host or cells: CHO cells, stably transfected with pcD1mGR2 (pcDNA I-amp), G-418 selected; membranes used
# T1 sequence (P31421 19-872): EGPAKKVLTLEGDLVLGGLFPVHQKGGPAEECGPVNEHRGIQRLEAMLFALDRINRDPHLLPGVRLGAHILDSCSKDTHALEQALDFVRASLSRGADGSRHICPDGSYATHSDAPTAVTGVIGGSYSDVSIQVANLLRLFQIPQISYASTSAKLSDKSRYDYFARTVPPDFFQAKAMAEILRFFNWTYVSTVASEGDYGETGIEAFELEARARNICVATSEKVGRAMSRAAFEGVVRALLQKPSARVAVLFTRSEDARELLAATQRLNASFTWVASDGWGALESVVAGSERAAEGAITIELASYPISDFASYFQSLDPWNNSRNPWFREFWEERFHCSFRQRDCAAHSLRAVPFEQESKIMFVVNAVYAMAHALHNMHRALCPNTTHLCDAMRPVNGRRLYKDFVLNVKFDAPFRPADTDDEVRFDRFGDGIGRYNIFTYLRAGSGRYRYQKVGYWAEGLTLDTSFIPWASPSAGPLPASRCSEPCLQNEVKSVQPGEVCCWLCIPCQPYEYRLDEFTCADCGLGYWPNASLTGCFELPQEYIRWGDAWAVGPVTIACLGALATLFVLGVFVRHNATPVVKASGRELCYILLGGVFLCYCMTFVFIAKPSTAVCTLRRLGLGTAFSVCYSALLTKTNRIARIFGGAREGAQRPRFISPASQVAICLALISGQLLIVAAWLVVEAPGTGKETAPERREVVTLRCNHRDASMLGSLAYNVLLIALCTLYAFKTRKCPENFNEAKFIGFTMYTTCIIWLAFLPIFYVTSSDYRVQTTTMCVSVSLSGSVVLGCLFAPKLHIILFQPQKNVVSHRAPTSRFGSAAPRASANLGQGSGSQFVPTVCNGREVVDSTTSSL
SMILES,melting point,Ki (rat mGlu2 receptor)
"COCCOc1cc2c(cc1-c1ccc(F)cc1)NC(=O)CC(c1cccc(-n3ccnc3)c1)=N2 [Example 57, 8-(4-Fluoro-phenyl)-4-(3-imidazol-1-yl-phenyl)-7-(2-methoxy-ethoxy)-1,3-dihydro-benzo[b][1,4]diazepin-2-one]",196 to 197 °C,
"O=C1CC(c2cccc(-n3ccnc3)c2)=Nc2cc(OCCO)c(-c3ccc(F)cc3)cc2N1 [Example 58, 8-(4-Fluoro-phenyl)-7-(2-hydroxy-ethoxy)-4-(3-imidazol-1-yl-phenyl)-1,3-dihydro-benzo[b][1,4]diazepin-2-one]",225 °C,
"O=C1CC(c2cccc(-n3ccnc3)c2)=Nc2cc(N3CCOC3=O)c(-c3ccc(F)cc3)cc2N1 [Example 59, 8-(4-Fluoro-phenyl)-4-(3-imidazol-1-yl-phenyl)-7-(2-oxo-oxazolidin-3-yl)-1,3-dihydro-benzo[b][1,4]diazepin-2-one]",230 °C,
"COc1cc2c(cc1-c1ccc(F)cc1C)NC(=O)CC(c1cccc(-n3ccnc3)c1)=N2 [Example 60, 8-(4-Fluoro-2-methyl-phenyl)-4-(3-imidazol-1-yl-phenyl)-7-methoxy-1,3-dihydro-benzo[b][1,4]diazepin-2-one]",225 °C,
"O=C1CC(c2cccc(-n3ccnc3)c2)=Nc2cc(N3CC[C@@H](O)C3)c(-c3ccc(F)cc3)cc2N1 [Example 63, 8-(4-Fluoro-phenyl)-7-((R)-3-hydroxy-pyrrolidin-1-yl)-4-(3-imidazol-1-yl-phenyl)-1,3-dihydro-benzo[b][1,4]diazepin-2-one]",155 to 158 °C,
"COc1cc2c(cc1-c1ccccc1F)NC(=O)CC(c1cccc(-n3ccnc3)c1)=N2 [Example 64, 8-(2-Fluoro-phenyl)-4-(3-imidazol-1-yl-phenyl)-7-methoxy-1,3-dihydro-benzo[b][1,4]diazepin-2-one]",216 °C (dec.),
"COc1cc2c(cc1-c1ccccc1F)NC(=O)CC(c1cccc(-n3cnnc3)c1)=N2 [Example 70, 8-(2-Fluoro-phenyl)-7-methoxy-4-(3-[1,2,4]triazol-4-yl-phenyl)-1,3-dihydro-benzo[b][1,4]diazepin-2-one]",188 °C (dec.),
"COc1cc2c(cc1-c1ccccc1F)NC(=O)CC(c1cc(C#N)ccc1F)=N2 [Example 73, 4-Fluoro-3-[7-(2-fluoro-phenyl)-8-methoxy-4-oxo-4,5-dihydro-3H-benzo[b][1,4]diazepin-2-yl]-benzonitrile]",> 250 °C,
"N#Cc1cc(C2=Nc3cc(O)c(-c4ccc(F)cc4)cc3NC(=O)C2)ccn1 [Example 74, 4-[7-(4-Fluoro-phenyl)-8-hydroxy-4-oxo-4,5-dihydro-3H-benzo[b][1,4]diazepin-2-yl]-pyridine-2-carbonitrile]",164 °C,
"N#Cc1cccc(C2=Nc3cc(N4CCC5(CC4)OCCO5)c(-c4ccccc4F)cc3NC(=O)C2)c1 [Example 76, 3-[8-(1,4-Dioxa-8-aza-spiro[4.5]dec-8-yl)-7-(2-fluoro-phenyl)-4-oxo-4,5-dihydro-3H-benzo[b][1,4]diazepin-2-yl]-benzonitrile]",253 °C,
"O=C1CC(c2cccc(-n3ccnc3)c2)=Nc2cc(N3CCC4(CC3)OCCO4)c(-c3ccccc3F)cc2N1 [Example 77, 7-(1,4-Dioxa-8-aza-spiro[4.5]dec-8-yl)-8-(2-fluoro-phenyl)-4-(3-imidazol-1-yl-phenyl)-1,3-dihydro-benzo[b][1,4]diazepin-2-one]",225 °C,
"O=C1CCN(c2cc3c(cc2-c2ccccc2F)NC(=O)CC(c2cccc(-n4ccnc4)c2)=N3)CC1 [Example 78, 8-(2-Fluoro-phenyl)-4-(3-imidazol-1-yl-phenyl)-7-(4-oxo-piperidin-1-yl)-1,3-dihydro-benzo[b][1,4]diazepin-2-one]",230 °C,
"N#Cc1cc(C2=Nc3cc(O)c(-c4ccccc4F)cc3NC(=O)C2)ccn1 [Example 80, 4-[7-(2-Fluoro-phenyl)-8-hydroxy-4-oxo-4,5-dihydro-3H-benzo[b][1,4]diazepin-2-yl]-pyridine-2-carbonitrile]",> 250 °C,
"N#Cc1ccsc1C1=CC(=O)Nc2cc(-c3ccccc3F)c(O)cc2N1 [Example 84, 2-[7-(2-Fluoro-phenyl)-8-hydroxy-4-oxo-4,5-dihydro-1H-benzo[b][1,4]diazepin-2yl]-thiophene-3-carbonitrile]",242 °C,
"O=C1CC(c2cccc(-n3ccnn3)c2)=Nc2cc(O)c(-c3ccc(F)cc3)cc2N1 [Example 86, 8-(4-Fluoro-phenyl)-7-hydroxy-4-(3-[1,2,3]triazol-1-yl-phenyl)-1,3-dihydro-benzo[b][1,4]diazepin-2-one]",> 250 °C,
"O=C1CC(c2cccc(-n3ccnn3)c2)=Nc2cc(O)c(C#Cc3ccc(F)cc3)cc2N1 [Example 92, 8-(4-Fluoro-phenylethynyl)-7-hydroxy-4-(3-[1,2,3]triazol-1-yl-phenyl)-1,3-dihydro-benzo[b][1,4]diazepin-2-one]",243 °C,

# Other lines, results leading:
melting point,Ki (rat mGlu2 receptor),SMILES
222 °C (dec.),35 nM,"N#Cc1cccc(C2=Nc3cc(OCC4COC(=O)O4)c(C#Cc4ccccc4)cc3NC(=O)C2)c1 (racemic) [Example 28, [RS]-3-[4-Oxo-8-(2-oxo-[1,3]dioxolan-4-ylmethoxy)-7-phenylethynyl-4,5-dihydro-3H-benzo[b][1,4]diazepin-2-yl]-benzonitrile]"
,28 nM,"N#Cc1cccc(C2=Nc3cc(Cl)c(C#Cc4ccccc4)cc3NC(=O)C2)c1 [Example 3, 3-(8-Chloro-4-oxo-7-phenylethynyl-4,5-dihydro-3H-benzo[b][1,4]diazepin-2-yl)-benzonitrile]"
242 to 244 °C (dec.),120 nM,"N#Cc1cccc(C2=Nc3cc(Cl)c(-c4ccccc4)cc3NC(=O)C2)c1 [Example 7, 3-(8-Chloro-4-oxo-7-phenyl-4,5-dihydro-3H-benzo[b][1,4]diazepin-2-yl)-benzonitrile]"
201 °C (dec.),51 nM,"COC(=O)CSc1cc2c(cc1C#Cc1ccccc1)NC(=O)CC(c1cccc(C#N)c1)=N2 [Example 12, [4-(3-Cyano-phenyl)-2-oxo-8-phenylethynyl-2,3-dihydro-1H-benzo[b][1,4]diazepin-7-ylsulfanyl]-acetic acid methyl ester]"
250 °C (dec.),37 nM,"N#Cc1cccc(C2=Nc3cc(CC(N)=O)c(C#Cc4ccccc4)cc3NC(=O)C2)c1 [Example 17, 2-[4-(3-Cyano-phenyl)-2-oxo-8-phenylethynyl-2,3-dihydro-1H-benzo[b][1,4]diazepin-7-yl]-acetamide]"
> 250 °C,46 nM,"COc1cc2c(cc1C#Cc1ccccc1)NC(=O)CC(c1cccc(C#N)c1)=N2 [Example 20, 3-(8-Methoxy-4-oxo-7-phenylethynyl-4,5-dihydro-3H-benzo[b][1,4]diazepin-2-yl)-benzonitrile]"
262 °C (dec.),16 nM,"N#CCc1cc2c(cc1C#Cc1ccccc1)NC(=O)CC(c1cccc(C#N)c1)=N2 [Example 23, 3-(8-Cyanomethyl-4-oxo-7-phenylethynyl-4,5-dihydro-3H-benzo[b][1,4]diazepin-2-yl)-benzonitrile]"
192 °C (dec.),21 nM,COCCOc1cc2c(cc1C#Cc1ccccc1)NC(=O)CC(c1cccc(I)c1)=N2 [Example 25]
187 to 189 °C,12 nM,"COCCOc1cc2c(cc1C#Cc1ccccc1)NC(=O)CC(c1cccc(-n3ccnc3)c1)=N2 [Example 27, 4-(3-Imidazol-1-yl-phenyl)-7-(2-methoxy-ethoxy)-8-phenylethynyl-1,3-dihydro-benzo[b][1,4]diazepin-2-one]"
227 °C,18 nM,"O=C1CC(c2cccc(-n3ccnc3)c2)=Nc2cc(CO)c(C#Cc3ccccc3)cc2N1 [Example 32, 7-Hydroxymethyl-4-(3-imidazol-1-yl-phenyl)-8-phenylethynyl-1,3-dihydro-benzo[b][1,4]diazepin-2-one]"
> 250 °C,,"N#Cc1cccc(C2=Nc3cc(O)c(-c4ccc(F)cc4)cc3NC(=O)C2)c1 [Example 65, 3-[7-(4-Fluoro-phenyl)-8-hydroxy-4-oxo-4,5-dihydro-3H-benzo[b][1,4]diazepin-2-yl]-benzonitrile]"
> 250 °C,,"N#Cc1cccc(C2=Nc3cc(O)c(-c4ccccc4F)cc3NC(=O)C2)c1 [Example 66, 3-[7-(2-Fluoro-phenyl)-8-hydroxy-4-oxo-4,5-dihydro-3H-benzo[b][1,4]diazepin-2-yl]-benzonitrile]"
245 to 247 °C,,"COc1cc2c(cc1-c1ccccc1F)NC(=O)CC(c1cccc(C#N)c1)=N2 [Example 67, 3-[7-(2-Fluoro-phenyl)-8-methoxy-4-oxo-4,5-dihydro-3H-benzo[b][1,4]diazepin-2-yl]-benzonitrile]"
251 °C,,"COc1cc2c(cc1-c1cc(F)ccc1F)NC(=O)CC(c1cccc(C#N)c1)=N2 [Example 82, 3-[7-(2,5-Difluoro-phenyl)-8-methoxy-4-oxo-4,5-dihydro-3H-benzo[b][1,4]diazepin-2-yl]-benzonitrile]"
211 to 213 °C,,"COCCOc1cc2c(cc1-c1ccccc1F)NC(=O)CC(c1cccc(C#N)c1)=N2 [Example 87, 3-[7-(2-Fluoro-phenyl)-8-(2-methoxy-ethoxy)-4-oxo-4,5-dihydro-3H-benzo[b][1,4]diazepin-2-yl]-benzonitrile]"
90 to 91 °C,,"N#Cc1cccc(C2=Nc3cc(CO)c(-c4ccccc4F)cc3NC(=O)C2)c1 [Example 88, 3-[7-(2-Fluoro-phenyl)-8-hydroxymethyl-4-oxo-4,5-dihydro-3H-benzo[b][1,4]diazepin-2-yl]-benzonitrile]"
227 to 230 °C (dec.),,"COCCOc1cc2c(cc1C#Cc1ccccc1)NC(=O)CC(c1cccc(C(N)=O)c1)=N2 [Example 95, 3-[8-(2-Methoxy-ethoxy)-4-oxo-7-phenylethynyl-4,5-dihydro-3H-benzo[b][1,4]diazepin 2-yl]-benzamide]"
